Experiments:
Rattus norvegicus [1] = experiment: Percent inhibition of edema in carrageenan-induced rat paw edema was determined by comparing with vehicle control group when tested on 14 rats at peroral dose of 100 umol/Kg; Not significant; format: functional; details: po
Rattus norvegicus [2] = experiment: Percent inhibition of pleural inflammation in carrageenan-induced rat model was determined by comparing with vehicle control group when tested on 5 rats at peroral dose of 100 umol/Kg; format: functional; details: po
Rattus norvegicus [3] = experiment: Percent inhibition of edema in carrageenan-induced rat paw edema was determined by comparing with vehicle control group when tested on 5 rats at peroral dose of 100 umol/Kg; format: functional; details: po
Rattus norvegicus [4] = experiment: Percent inhibition of edema in carrageenan-induced rat paw edema was determined by comparing with vehicle control group when tested on 10 rats at peroral dose of 100 umol/Kg; format: functional; details: po
Rattus norvegicus [5] = experiment: Percent inhibition of pleural inflammation in carrageenan-induced rat model was determined by comparing with vehicle control group when tested on 10 rats at peroral dose of 100 umol/Kg; format: functional; details: po
Rattus norvegicus [6] = species: Rattus norvegicus; experiment: animal or person; details: po, read-out: Inhibition
Description: Percent inhibition of pleural inflammation in carrageenan-induced rat model was determined by comparing with vehicle control group when tested on 8 rats at peroral dose of 100 umol/Kg

SMILES	inhibition in vivo at 100 µmol/kg (Rattus norvegicus [2])	inhibition in vivo at 100 µmol/kg (Rattus norvegicus [3])	further results
CNS(=O)(=O)c1cc2c(cc1Cc1ccccc1)OCO2	46%		inhibition in vivo at 100 µmol/kg (Rattus norvegicus [1]): 2.7%
CS(=O)(=O)Nc1cc2c(cc1Cc1cccc(C(F)(F)F)c1)OCO2	24.6%	19.7%	
CS(=O)(=O)Nc1cc2c(cc1Cc1ccccc1)OCO2	43.1%		inhibition in vivo at 100 µmol/kg (Rattus norvegicus [4]): 21%
O=S(=O)(Nc1ccccc1)c1cc2c(cc1Cc1ccccc1)OCO2	24.6%	27.2%	
COc1ccc2c(c1)c(CC(=O)O)c(C)n2C(=O)c1ccc(Cl)cc1 [INDOMETHACIN]		85.4%	inhibition in vivo at 100 µmol/kg (Rattus norvegicus [5]): 31.7%
CS(=O)(=O)Nc1ccc([N+](=O)[O-])cc1Oc1ccccc1 [NIMESULIDE]		61.7%	inhibition in vivo at 100 µmol/kg (Rattus norvegicus [6]): 29.9%
